In the assay the test system is human kidney 293E cells stably transfected with Gαiq—5. The experiment in a line: cells. To be noted: 293E cells with Gαiq—5 coding region only. How it is done: The growth medium in the 6-well plate was replaced with antibiotic-free medium at 3 ml per well. DNA complexes were added at 320 μl per well and plates were returned to the incubator. […] 25 μl of this suspension was added to 30 ml of selective medium in a 15 cm tissue culture plate. Cells were maintained in selective medium for approximately two weeks. Five single clones were isolated and grown in 24-well, then 6-well, then T-75 tissue culture plates.
Thirty hours later cells were loaded with 100 μl loading dye. […] A stock solution of Probenecid (Sigma P8761) was prepared by dissolving 70 mg in 500 μl 1 M NaOH and then adding 500 μl of FIPR assay buffer. This was added to the loading solution at a final concentration of 700 μg/ml. After adding the loading dye, cells were returned to the incubator for one hour.
After one hour loading, dye was removed from the wells by gentle aspiration and replaced with 120 μl of FLIPR assay buffer.
Data were analyzed and plotted using XLfit (IDBS).

Each structure is given as a SMILES string. Read-outs that look alike come from different tables or passages of the source.

Turning to `O=C(O)c1cccnc1` [nicotinic acid, Nicotinic acid], the EC50 was 833 nM (Homo sapiens, read-out: calculated EC50, FIG. 5) and 823 nM (read-out: calculated EC50, FIG. 5).

Usually EC50 stands for the concentration giving half of the maximal effect.

Source of the values: US7371822B2, “Human G-protein coupled receptor variant of HM74, HGPRBMY74” (Bristol-Myers Squibb Company, priority 2003, dated 2008).
